Like-named read-outs stand apart in the source and are kept apart here.

The assay relates to HCV 1b genotype. The experiment in a line: HCV replicon assay (HCV-neo replicon cells, wild-type). The settings on record: Hepatitis C virus, HCV 1b genotype replicon. The class given is cell-based, Hepatitis C virus. The method, boiled down: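 Inhibition was tested in replicon-bearing cells, both wild-type HCV-neo and lines with NS5A resistance substitutions, using the O'Boyle et al. 2005 replicon method or luciferase-reporter formats.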

Where [1] appears, read: class symbol, read-out: EC50 Range against HCV 1b.

As for `CC(=O)N1CCC[C@H]1C(=O)Nc1ccc(-c2nnc(-c3ccc(NC(=O)[C@@H]4CCCN4C(=O)Cc4cccnc4)cc3)o2)cc1` [Example D-64, (2S)-1-acetyl-N-[4-[5-[4-[[[(2S)-1-(3-pyridinylacetyl)-2-pyrrolidinyl]carbonyl]amino]phenyl]-1,3,4-oxadiazol-2-yl]phenyl]-2-pyrrolidinecarboxamide], the EC50 reads like this: under setting [1], 1000 to 10000 nM; (read-out: EC50 1b) 6570 nM. Take `Cn1nc(-c2ccc(NC(=O)[C@@H]3CCCN3C(=O)Cc3ccccc3)cc2)cc1-c1ccc(NC(=O)[C@@H]2CCCN2C(=O)Cc2ccccc2)cc1` [FY-1, (2S,2′S)-N,N′-((1-methyl-1H-pyrazole-3,5-diyl)di-4,1-phenylene)bis(1-(phenylacetyl)-2-pyrrolidinecarboxamide)]: the EC50 under setting [1] fell in the range of 100 to 999 nM. In the case of `CC(=O)N1CCC[C@H]1C(=O)Nc1ccc(-c2cc(-c3ccc(NC(=O)[C@@H]4CCCN4C(C)=O)cc3)n(C)n2)cc1` [FY-2, (2S,2′S)-N,N′-((1-methyl-1H-pyrazole-3,5-diyl)di-4,1-phenylene)bis(1-acetyl-2-pyrrolidinecarboxamide)], the EC50 under setting [1] was 1000 to 10000 nM.

Regarding `Cn1nc(-c2ccc(NC(=O)[C@@H]3CCCN3C(=O)OCc3ccccc3)cc2)cc1-c1ccc(NC(=O)[C@@H]2CCCN2C(=O)OCc2ccccc2)cc1` [FY-3, dibenzyl (2S,2′S)-2,2′-((1-methyl-1H-pyrazole-3,5-diyl)bis(4,1-phenylenecarbamoyl))di(1-pyrrolidinecarboxylate)], the EC50 under setting [1] was 100 to 999 nM. The same measure, in the same setting: the value for `Cn1nc(-c2ccc(NC(=O)[C@@H]3CCCN3C(=O)C3CC3)cc2)cc1-c1ccc(NC(=O)[C@@H]2CCCN2C(=O)C2CC2)cc1` [FY-4, (2S,2′S)-N,N′-((1-methyl-1H-pyrazole-3,5-diyl)di-4,1-phenylene)bis(1-(cyclopropylcarbonyl)-2-pyrrolidinecarboxamide)] was 1000 to 10000 nM; that for `O=C(Nc1ccc(-c2cnc(-c3ccc(NC(=O)N[C@@H]4CCN(C(=O)[C@H](O)c5ccccc5)C4)cc3)o2)cc1)N[C@@H]1CCN(C(=O)[C@H](O)c2ccccc2)C1` [FY-5, N′,N′″-(1,3-oxazole-2,5-diyldi-4,1-phenylene)bis(1-((3R)-1-((2R)-2-hydroxy-2-phenylacetyl)-3-pyrrolidinyl)urea)] was 100 to 999 nM. The same measure, in the same setting: the value for `O=C(Nc1ccc(-c2cnc(-c3ccc(NC(=O)N[C@@H]4CCN(C(=O)[C@@H](O)c5ccccc5)C4)cc3)o2)cc1)N[C@@H]1CCN(C(=O)[C@@H](O)c2ccccc2)C1` [FY-6, N′,N′″-(1,3-oxazole-2,5-diyldi-4,1-phenylene)bis(1-((3R)-1-((2S)-2-hydroxy-2-phenylacetyl)-3-pyrrolidinyl)urea)] was 100 to 999 nM. For the compound `C[C@@](O)(C(=O)N1CC[C@@H](NC(=O)Nc2ccc(-c3cnc(-c4ccc(NC(=O)N[C@@H]5CCN(C(=O)[C@@](C)(O)c6ccccc6)C5)cc4)o3)cc2)C1)c1ccccc1` [FY-7, N′,N′″-(1,3-oxazole-2,5-diyldi-4,1-phenylene)bis(1-((3R)-1-(2-hydroxy-2-phenylpropanoyl)-3-pyrrolidinyl)urea)], under setting [1], the EC50 lay in the range of 100 to 999 nM. Turning to `CN(C)[C@@H](C(=O)N1CC[C@@H](NC(=O)Nc2ccc(-c3cnc(-c4ccc(NC(=O)N[C@@H]5CCN(C(=O)[C@@H](c6ccccc6)N(C)C)C5)cc4)o3)cc2)C1)c1ccccc1` [FY-8, N′,N′″-(1,3-oxazole-2,5-diyldi-4,1-phenylene)bis(1-((3R)-1-((2R)-2-(dimethylamino)-2-phenylacetyl)-3-pyrrolidinyl)urea)], the EC50 under setting [1] was in the range of 100 to 999 nM. Same read-out and setting: with `CN(C)[C@@H](C(=O)N1CCCN1C(=O)Nc1ccc(-c2cnc(-c3ccc(NC(=O)N4CCCN4C(=O)[C@@H](c4ccccc4)N(C)C)cc3)o2)cc1)c1ccccc1` [FY-9, N,N′-(1,3-oxazole-2,5-diyldi-4,1-phenylene)bis(2-((2R)-2-(dimethylamino)-2-phenylacetyl)-1-pyrazolidinecarboxamide)] the figure was 4.57 to 99 nM. On to `O=C(Nc1ccc(-c2cnc(-c3ccc(NC(=O)[C@@H]4CCCN4C(=O)OCc4ccccc4)cc3)o2)cc1)[C@@H]1CCCN1C(=O)OCc1ccccc1` [JG-1, dibenzyl (2S,2′S)-2,2′-(1,3-oxazole-2,5-diylbis(4,1-phenylenecarbamoyl))di(1-pyrrolidinecarboxylate)], for which, under setting [1], the EC50 is less than 4.57 nM. Turning to `O=C(Nc1ccc(-c2cnc(-c3ccc(NC(=O)[C@@H]4C[C@@H](O)CN4C(=O)Cc4ccccc4)cc3)o2)cc1)[C@@H]1C[C@@H](O)CN1C(=O)Cc1ccccc1` [JG-2, (2S,4R,2′S,4′R)-N,N′-(1,3-oxazole-2,5-diyldi-4,1-phenylene)bis(4-hydroxy-1-(phenylacetyl)-2-pyrrolidinecarboxamide)], the EC50 is less than 4.57 nM under setting [1] and 2 nM (read-out: EC50 1b). Regarding `O=C(Nc1ccc(-c2cnc(-c3ccc(NC(=O)[C@@H]4CCCN4C(=O)Cc4ccccc4)cc3)o2)cc1)[C@@H]1CCCN1C(=O)Cc1ccccc1` [JG-3, (2S,2′S)-N,N′-(1,3-oxazole-2,5-diyldi-4,1-phenylene)bis(1-(phenylacetyl)-2-pyrrolidinecarboxamide)], under setting [1], the EC50 is less than 4.57 nM. With `CC(C)[C@H](NC(=O)OCc1ccccc1)C(=O)Nc1ccc(-c2cnc(-c3ccc(NC(=O)[C@@H](NC(=O)OCc4ccccc4)C(C)C)cc3)o2)cc1` [JG-4, dibenzyl (1,3-oxazole-2,5-diylbis(4,1-phenyleneimino((2S)-3-methyl-1-oxo-1,2-butanediyl)))biscarbamate], under setting [1], the EC50 lay within 100 to 999 nM.

`CC(C)[C@@H](NC(=O)OCc1ccccc1)C(=O)Nc1ccc(-c2cnc(-c3ccc(NC(=O)[C@H](NC(=O)OCc4ccccc4)C(C)C)cc3)o2)cc1` [JG-5, dibenzyl (1,3-oxazole-2,5-diylbis(4,1-phenyleneimino((2R)-3-methyl-1-oxo-1,2-butanediyl)))biscarbamate]: the EC50 by setting is: under setting [1], 1000 to 10000 nM; (read-out: EC50 1b) 10000 nM. On to `O=C(Nc1ccc(-c2cnc(-c3ccc(NC(=O)[C@@H]4CCCCN4C(=O)Cc4ccccc4)cc3)o2)cc1)[C@@H]1CCCCN1C(=O)Cc1ccccc1` [JG-6, (2S,2′S)-N,N′-(1,3-oxazole-2,5-diyldi-4,1-phenylene)bis(1-(phenylacetyl)-2-piperidinecarboxamide)], for which, under setting [1], the EC50 lay in the range of 100 to 999 nM. As for `CCC(=O)N1CCC[C@H]1C(=O)Nc1ccc(-c2cnc(-c3ccc(NC(=O)[C@@H]4CCCN4C(=O)CC)cc3)o2)cc1` [JG-8, (2S,2′S)-N,N′-(1,3-oxazole-2,5-diyldi-4,1-phenylene)bis(1-propionyl-2-pyrrolidinecarboxamide)], under setting [1], the EC50 was in the range of 100 to 999 nM.

Turning to `O=C(Nc1ccc(-c2cnc(-c3ccc(NC(=O)[C@@H]4CCCN4C(=O)C4CCC4)cc3)o2)cc1)[C@@H]1CCCN1C(=O)C1CCC1` [JG-9, (2S,2′S)-N,N′-(1,3-oxazole-2,5-diyldi-4,1-phenylene)bis(1-(cyclobutylcarbonyl)-2-pyrrolidinecarboxamide)], the EC50 under setting [1] lay within 100 to 999 nM. As for `O=C(Nc1ccc(-c2cnc(-c3ccc(NC(=O)[C@@H]4CCCN4C(=O)c4ccncc4)cc3)o2)cc1)[C@@H]1CCCN1C(=O)c1ccncc1` [JG-10, (2S,2′S)-N,N′-(1,3-oxazole-2,5-diyldi-4,1-phenylene)bis(1-isonicotinoyl-2-pyrrolidinecarboxamide)], under setting [1], the EC50 was 100 to 999 nM.

Take `CC(=O)N1CCC[C@H]1C(=O)Nc1ccc(-c2cnc(-c3ccc(NC(=O)[C@@H]4CCCN4C(C)=O)cc3)o2)cc1` [JG-11, (2S,2′S)-N,N′-(1,3-oxazole-2,5-diyldi-4,1-phenylene)bis(1-acetyl-2-pyrrolidinecarboxamide)]: the EC50 under setting [1] was in the range of 1000 to 10000 nM.

The values above are taken from patent publication US8735398B2 (Bristol-Myers Squibb Company, priority 2009, dated 2014).
